# According to patent US20240067932A1, “METHODS AND COMPOSITIONS FOR GENERATING HEMOGENIC ENDOTHELIAL CELLS FROM PLURIPOTENT STEM CELLS” (Trailhead Biosystems Inc., priority 2022, published 2024):
# Experiments:
# Format in all cases: cell-based, human
# [1] = test system: early mesoderm progenitors; assay: 8-factor HD-DoE experiments optimized for maximum GATA2 expression (qPCR, partial least squares models)
# [2] = test system: early mesoderm progenitors; assay: Factor criticality / dynamic profile analysis of gene expression on removal of a finalized effector; set-up: expression level of GATA2 / expression level of TAL1 / expression level of CD44 / expression level of KDR / expression level of CD34 / expression level of CD31: unit not given here
# [3] = test system: early mesoderm progenitors; assay: 8-factor HD-DoE experiments optimized for maximum GATA2 expression (qPCR, partial least squares models); details: for factor contribution (maximum expression of GATA2): first model, FIG. 2, factors Forskolin, VEGF, FGF2, Albumax, SUN1162, Hydrocortisone, SB341542, Resveratrol, 3 days after stage 1
# Text: The early mesoderm progenitors were used for further differentiation along the endothelial lineage using a High-Dimensional Design of Experiments (HD-DoE) approach to simultaneously test multiple process inputs (e.g., small molecule agonists or antagonists) on output responses, such as gene expression. Based on predicted conditions that maximize expression of hemogenic endothelial enriched genes such as CD31, CD34, CD143, CD309, GATA2, Fill and RUNX1, vWF, a complex recipe was developed for generating differentiated hemogenic endothelial cells from the early mesoderm progenitors, composed of 8 agents as shown below in Table 1:
# First, undifferentiated iPSC were grown for 48 h in CDM2 media containing 6 uM CHIR99021 (referred to herein as stage 1). Then stage 2 media was engineered. The basis of this was an 8-factor HD-DoE experiment with focus on differentiation of cells toward the hemogenic endothelial lineage for an additional 3 days after termination of stage 1 treatment. To test the effectors, 48 different combinations of effectors generated using Design-of-Experiments compression through D-optimality were robotically prepared. The effector combinations were prepared in a basal media and were subsequently added to the cells, which were then allowed to differentiate. Three days later, RNA extraction was performed, and gene expression was obtained using quantitative PCR analysis. The data were normalized and modeled using partial least squares regression analysis to the effector design, resulting in the generation of gene-specific models, which after model tuning for maximal Q2 predictive power, provided explanation of the effectors ability to control the expression of individual genes, combinatorically, and individually. Solutions within the tested space could then be explored to address desirability. For stage 2, conditions were created inducing the expression of GATA2, a transcription factor identified as a master regulator of hematopoiesis. GATA2 promotes the generation of HECs and facilitates endothelial-to-hematopoietic transition (EHT). GATA2 also suppresses cardiac differentiation at the mesoderm stage, directing cells to a hematopoietic fate. Optimizing for maximal expression of GATA2 led to a robust solution. […] In this model, high levels of KDR, important receptor for VEGF signaling, were observed. […] This model was derived from initial testing of eight factors including: Forskolin, VEGF, FGF2, Albumax, SUN1162, Hydrocortisone, SB341542, and Resveratrol. […] Factors with low contribution were excluded.
# [4] = second model, FIG. 3, factors CHIR, VEGF, FGF2, TTNBP, AGN194310, Y27632, Thymosin-β4, heparin
# [5] = model FIG. 10 (XAV939, VEGF, FGF2, L-ascorbic acid kept), factor present
# [6] = model FIG. 10, named factor removed
# [7] = fourth model, FIG. 5, factors VEGF, FGF2, Sphingosine 1 phosphate, V11298, Pyrintegrin, Erythropoietin, L-ascorbic acid, XAV939
# [8] = model FIG. 7 (VEGF, Forskolin, FGF2), factor present
# [9] = model FIG. 7, named factor removed, others kept
# [10] = model FIG. 8, named factor removed, others kept
# [11] = model FIG. 9, named factor removed
compound,measurement,setting,value
C/C(=C\c1ccc(C(=O)O)cc1)c1ccc2c(c1)C(C)(C)CCC2(C)C [TTNBP],factor contribution (maximum expression of GATA2),[1]; [4],relatively low factor contribution
"Oc1nc(-c2ccc(C(F)(F)F)cc2)nc2c1CSCC2 [XAV939, reference compound]",expression level of GATA2,[2]; [5],992
same,expression level of CD31,"[2]; model FIG. 10, factor present",6619
same,expression level of CD34,"[2]; model FIG. 10, factor present",7050
same,expression level of CD44,"[2]; model FIG. 10, factor present",838
same,expression level of FLI1 (Fill [sic]),"[2]; model FIG. 10, factor present",13094
same,expression level of KDR,"[2]; model FIG. 10, factor present",36067
same,expression level of TAL1,"[2]; model FIG. 10, factor present",1265
same,expression level of CD31,[2]; [6],2181
same,expression level of CD34,[2]; [6],5740
same,expression level of CD44,[2]; [6],799
same,expression level of FLI1 (Fill [sic]),[2]; [6],7237
same,expression level of GATA2,[2]; [6],560
same,expression level of KDR,[2]; [6],31179
same,expression level of TAL1,[2]; [6],982
same,factor contribution (maximum expression of GATA2),[1]; [7],16
C[C@@H](N)[C@H]1CC[C@H](C(=O)Nc2ccncc2)CC1 [Y27632],factor contribution (maximum expression of GATA2),[1]; [4],relatively low factor contribution
"FGF2: FGFR agonist (e.g., recombinant human FGF2)",factor contribution in 2 of 3 models,[3]; across models,> 16
same,factor contribution (maximum expression of GATA2),[3],17
same,expression level of GATA2,[2]; [8],583
same,expression level of CD31,"[2]; model FIG. 7, factor present",879
same,expression level of CD44,"[2]; model FIG. 7, factor present",576
same,expression level of FLI1 (Fill [sic]),"[2]; model FIG. 7, factor present",3970
same,expression level of KDR,"[2]; model FIG. 7, factor present",33760
same,expression level of CD31,[2]; [9],505
same,expression level of CD44,[2]; [9],274
same,expression level of FLI1 (Fill [sic]),[2]; [9],3374
same,expression level of GATA2,[2]; [9],458
same,expression level of KDR,[2]; [9],23868
same,expression level of CD31,"[2]; model FIG. 8, factor present",807
same,expression level of CD44,"[2]; model FIG. 8, factor present",748
same,expression level of KDR,"[2]; model FIG. 8, factor present",40630
same,expression level of CD31,[2]; [10],677
same,expression level of CD44,[2]; [10],626
same,expression level of KDR,[2]; [10],29902
same,expression level of GATA2,[2]; [5],992
same,expression level of CD31,"[2]; model FIG. 10, factor present",6619
same,expression level of CD34,"[2]; model FIG. 10, factor present",7050
same,expression level of CD44,"[2]; model FIG. 10, factor present",838
same,expression level of FLI1 (Fill [sic]),"[2]; model FIG. 10, factor present",13094
same,expression level of KDR,"[2]; model FIG. 10, factor present",36067
same,expression level of TAL1,"[2]; model FIG. 10, factor present",1265
same,expression level of CD31,[2]; [6],2002
same,expression level of CD34,[2]; [6],6550
same,expression level of CD44,[2]; [6],466
same,expression level of FLI1 (Fill [sic]),[2]; [6],5406
same,expression level of GATA2,[2]; [6],397
same,expression level of KDR,[2]; [6],22308
same,expression level of TAL1,[2]; [6],866
same,factor contribution (maximum expression of GATA2),[1]; [7],22
same,factor contribution (maximum expression of GATA2),[1]; [4],low factor contribution
"Thymosin-β4: Actin binding protein (SDKPDMAEIEKFDKSKLKKTETQEKNPLPSKETIEQEKQAGES; UniProt P62328 2-44, looked up)",expression level of GATA2,"[2]; model FIG. 8 (VEGF, FGF2, Thymosin-β4), factor present",633
same,expression level of CD44,"[2]; model FIG. 8, factor present",748
same,expression level of KDR,"[2]; model FIG. 8, factor present",40660
same,expression level of CD44,[2]; [10],626
same,expression level of GATA2,[2]; [10],437
same,expression level of KDR,[2]; [10],37788
same,factor contribution (maximum expression of GATA2),[1]; [4],16
VEGF,factor contribution (maximum expression of GATA2),[3],46
same,expression level of GATA2,[2]; [8],583
same,expression level of CD31,"[2]; model FIG. 7, factor present",879
same,expression level of CD34,"[2]; model FIG. 7, factor present",2350
same,expression level of CD44,"[2]; model FIG. 7, factor present",578
same,expression level of FLI1 (Fill [sic]),"[2]; model FIG. 7, factor present",3971
same,expression level of KDR,"[2]; model FIG. 7, factor present",33751
same,expression level of TAL1,"[2]; model FIG. 7, factor present",370
same,expression level of CD31,[2]; [9],2
same,expression level of CD34,[2]; [9],150
same,expression level of CD44,[2]; [9],349
same,expression level of FLI1 (Fill [sic]),[2]; [9],241
same,expression level of GATA2,[2]; [9],236
same,expression level of KDR,[2]; [9],16856
same,expression level of TAL1,[2]; [9],18
same,effect on expression of hemogenic endothelial genes analyzed (in words),[2]; model FIG. 8,critical for increasing the expression of all hemogenic endothelial genes analyzed
same,expression level of CD31,"[2]; model FIG. 9, factor present",869
same,expression level of CD34,"[2]; model FIG. 9, factor present",2341
same,expression level of FLI1 (Fill [sic]),"[2]; model FIG. 9, factor present",2292
same,expression level of KDR,"[2]; model FIG. 9, factor present",7518
same,expression level of CD31,[2]; [11],262
same,expression level of CD34,[2]; [11],868
same,expression level of FLI1 (Fill [sic]),[2]; [11],974
same,expression level of KDR,[2]; [11],6209
same,effect on expression of hemogenic endothelial genes analyzed (in words),[2]; model FIG. 10,critical for expression of all hemogenic endothelial genes analyzed
same,effect on expression of hemogenic endothelial genes analyzed (in words),[2]; model FIG. 11,critical for expression of all hemogenic endothelial genes analyzed
same,effect towards GATA2 induction in 4 out of 5 models,[1]; across models,strong positive effect towards GATA2 induction
same,factor contribution (maximum expression of GATA2),"[1]; fifth model, FIG. 6, factors VPA, SCF, BMP4, EFG, FLT3L, Arginine, Retinoic Acid, VEGF",22
same,factor contribution (maximum expression of GATA2),[1]; [7],22
same,factor contribution (maximum expression of GATA2),[1]; [4],25
heparin,factor contribution (maximum expression of GATA2),[1]; [4],relatively low factor contribution
